“And” between values parts separate entries of the source, which are not always exact repeats. Identical values can stand only once.
Key:
[1] = tested on: Geranylgeranyl transferase type I (Candida albicans); experiment: Tested for the inhibition of Candida GGTase I in Candida albicans at concentration of 3 uM
[2] = molecular target: Geranylgeranyl transferase type I (Candida albicans); experiment: Tested for the inhibition of Candida GGTase I in Candida albicans
[3] = molecular target: Protein farnesyltransferase (Homo sapiens, UniProt P49354+P49356); experiment: Inhibition of human farnesyl transferase; type: protein-complex assay
[4] = molecular target: Geranylgeranyl transferase type I (Candida albicans); experiment: Inhibition of Candida geranylgeranyl transferase I […]
[5] = molecular target: T1, Geranylgeranyl transferase type I (Homo sapiens, UniProt P49354+P53609); experiment: Inhibition of human geranylgeranyl transferase I; type: protein-complex assay
[6] = molecular target: Geranylgeranyl transferase type I (Candida albicans); experiment: Inhibition of Candida geranylgeranyl transferase I
Candida albicans = experiment: Antifungal activity against Candida albicans; type: functional
[7] = molecular target: T1, Geranylgeranyl transferase type I; experiment: Tested for the selectivity against human geranylgeranyl transferase I; type: protein-complex assay

Compound | inhibition [1] | other results
O=C(O)CCC(NC(=O)C1Cc2ccccc2C1)C(=O)OCCCS (configuration not stated) | < 10% | –
O=C(N[C@H](Cc1cccc2ccccc12)C(=O)NCCc1cnc[nH]1)C1Cc2ccccc2C1 | – | IC50 [2]: 350 nM
O=C(OCC(O)CS)c1csc(C2COc3ccccc3O2)n1 (configuration not stated) | – | IC50 [2]: 31 nM
CC(O)C(NC(=O)C1Cc2ccccc2C1)C(=O)OCCCS (configuration not stated) | < 10% | –
O=C(OC(CS)C(O)CS)c1csc(C2COc3ccccc3O2)n1 (configuration not stated) | – | IC50 [3]: > 1 mM; IC50 [4]: 17 nM; IC50 [5]: 40 µM; IC50 [6]: 17 nM; MIC (Candida albicans): > 120 µg/mL
O=C(N[C@H](Cc1ccc(Cl)c(Cl)c1)C(=O)NCCc1c[nH]cn1)C1c2ccccc2Oc2ccccc21 | – | Selectivity [7]: > 1000; IC50 [2]: 10 nM
O=C(OCCS)c1csc(C2COc3ccccc3O2)n1 (configuration not stated) | – | IC50 [4]: 1300 nM
O=C(N[C@H](Cc1cccc2ccccc12)C(=O)OCCCS)C1Cc2ccccc2C1 | – | IC50 [2]: 7.3 nM
NC(=O)[C@@H](Cc1c[nH]cn1)NC(=O)[C@@H](Cc1cccc2ccccc12)NC(=O)C1Cc2ccccc2C1 | 48% | –
O=C(NCCCS)c1csc(C2COc3ccccc3O2)n1 (configuration not stated) | – | IC50 [2]: 780 nM
O=C(NC(CC1CCCCC1)C(=O)OCCCS)C1Cc2ccccc2C1 (configuration not stated) | < 10% | –
NC(=O)[C@@H](Cc1c[nH]cn1)NC(=O)[C@@H](Cc1cccc2ccccc12)NC(=O)C1c2ccccc2-c2ccccc21 | 71% and 96% | –
O=C(OCCCS)c1csc(C2COc3ccccc3O2)n1 (configuration not stated) | – | IC50 [4]: 240 nM
NC(=O)[C@@H](Cc1c[nH]cn1)NC(=O)[C@@H](Cc1cccc2ccccc12)NC(=O)C1c2ccccc2Oc2ccccc21 | 97% | –
O=C(CNC(=O)C1Cc2ccccc2C1)OCCCS | < 10% | –

Continued, in another order:

inhibition [1] | Compound | other results
55% | O=C(OCCCS)C(Cc1ccccc1)NC(=O)C1COc2ccccc2O1 (configuration not stated) | –
< 10% | O=C(CNC(=O)C1COc2ccccc2O1)OCCCS (configuration not stated) | –
90% | O=C(NC(C(=O)OCCCS)c1cccc2ccccc12)C1Cc2ccccc2C1 (configuration not stated) | –
36% | O=C(NC(Cc1ccc2ccccc2c1)C(=O)OCCCS)C1Cc2ccccc2C1 (configuration not stated) | –
< 10% | O=C(OCCCS)C(CC1CCCCC1)NC(=O)C1COc2ccccc2O1 (configuration not stated) | –
< 10% | CC(O)C(NC(=O)C1COc2ccccc2O1)C(=O)OCCCS (configuration not stated) | –
25% | O=C(OCCCS)C(Cc1ccc2ccccc2c1)NC(=O)C1COc2ccccc2O1 (configuration not stated) | –
72% | O=C(NC(Cc1c[nH]c2ccccc12)C(=O)OCCCS)C1Cc2ccccc2C1 (configuration not stated) | –
63% | O=C(NC(Cc1ccccc1)C(=O)OCCCS)C1Cc2ccccc2C1 (configuration not stated) | –
72% | O=C(OCCCS)C(Cc1c[nH]c2ccccc12)NC(=O)C1COc2ccccc2O1 (configuration not stated) | –
89% | O=C(NC(C(=O)OCCCS)c1cccc2ccccc12)C1COc2ccccc2O1 (configuration not stated) | –
< 10% | O=C(O)CCC(NC(=O)C1COc2ccccc2O1)C(=O)OCCCS (configuration not stated) | –
